# In ChEMBL document CHEMBL1201862, “PubChem BioAssay data set” (2004):
#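 Grown in 96-well plates, cells were treated for 48 hours with each compound at five concentrations. Insufficient inhibition: endpoint recorded as highest concentration tested. Abbreviation: GI50, concentration required for 50% inhibition of growth.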 The source made the active and inactive calls. Cut-off read from the data, not from the text of the source: active = GI50 up to about 1.1 µM and inactive = higher.
# How the values were obtained:
# Assay in all cases: growth of human tumour cells (NCI), 48 h
# [1] = system: HL-60
# [2] = system: SK-OV-3
# [3] = system: BT-549
# [4] = system: SK-MEL-5
# [5] = system: MDA-N
# [6] = system: SF-539
# [7] = system: OVCAR-8
# [8] = system: HCT-116
# [9] = system: COLO 205
# [10] = system: HCT-15
# [11] = system: LOX IMVI
# [12] = system: SNB-75
# [13] = system: DU-145
# [14] = system: NCI/ADR-RES
# [15] = system: NCI-H23
# [16] = system: RXF 393
# [17] = system: UO-31
# [18] = system: OVCAR-4
# [19] = system: ACHN
# [20] = system: UACC-62
# [21] = system: NCI-H226
# [22] = system: K562
# [23] = system: SNB-19
# [24] = system: T47D
# [25] = system: Hs-578T
# [26] = system: 786-0
# [27] = system: HT-29
# [28] = system: SF-268
# [29] = system: CAKI-1
# [30] = system: SN12C
# [31] = system: MDA-MB-231
# [32] = system: HCC 2998
# [33] = system: HOP-62
# [34] = system: MCF7
# [35] = system: M14
# [36] = system: CCRF-CEM
# [37] = system: EKVX
# [38] = system: A549
# [39] = system: KM12
# [40] = system: MDA-MB-435
# [41] = system: NCI-H522
# [42] = system: IGROV-1
# [43] = system: A498
# [44] = system: SK-MEL-28
# [45] = system: UACC-257
# [46] = system: Malme-3M
# [47] = system: PC-3
# [48] = system: SF-295
# [49] = system: HOP-92
# [50] = system: TK-10
# [51] = system: MOLT-4
# [52] = system: OVCAR-3
# [53] = system: NCI-H460
# [54] = system: SW-620
# [55] = system: SK-MEL-2
# [56] = system: OVCAR-5
# [57] = system: RPMI-8226
# [58] = system: U-251
smiles,measurement,setting,value
COC(=O)c1cc(C)ccc1CC(Cc1ccccc1C)C(=O)OC (stereo unspecified),GI50,[1],13.2 µM (inactive)
same,GI50,[2],> 100 µM (inactive)
same,GI50,[3],61.7 µM (inactive)
same,GI50,[4],14.1 µM (inactive)
same,GI50,[5],28.4 µM (inactive)
same,GI50,[6],> 100 µM (inactive)
same,GI50,[7],45.5 µM (inactive)
same,GI50,[8],14.7 µM (inactive)
same,GI50,[9],46.2 µM (inactive)
same,GI50,[10],21.4 µM
same,GI50,[11],12.5 µM (inactive)
same,GI50,[12],> 100 µM (inactive)
same,GI50,[13],> 100 µM (inactive)
same,GI50,[14],32.6 µM (inactive)
same,GI50,[15],40.1 µM (inactive)
same,GI50,[16],26.9 µM (inactive)
same,GI50,[17],31 µM (inactive)
same,GI50,[18],29.7 µM (inactive)
same,GI50,[19],75.2 µM (inactive)
same,GI50,[20],27.5 µM (inactive)
same,GI50,[21],81.7 µM (inactive)
same,GI50,[22],10.6 µM (inactive)
same,GI50,[23],> 100 µM (inactive)
same,GI50,[24],26 µM (inactive)
same,GI50,[25],27.9 µM (inactive)
same,GI50,[26],89.5 µM (inactive)
same,GI50,[27],22 µM (inactive)
same,GI50,[28],61.2 µM (inactive)
same,GI50,[29],32.8 µM (inactive)
same,GI50,[30],44.9 µM (inactive)
same,GI50,[31],59.6 µM (inactive)
same,GI50,[32],34.9 µM (inactive)
same,GI50,[33],> 100 µM (inactive)
same,GI50,[34],23.3 µM (inactive)
same,GI50,[35],29.6 µM (inactive)
same,GI50,[36],14 µM (inactive)
same,GI50,[37],18.7 µM (inactive)
same,GI50,[38],51.6 µM (inactive)
same,GI50,[39],23.8 µM (inactive)
same,GI50,[40],18.1 µM (inactive)
same,GI50,[41],25.8 µM (inactive)
same,GI50,[42],45.9 µM (inactive)
same,GI50,[43],60.4 µM (inactive)
same,GI50,[44],88.1 µM (inactive)
same,GI50,[45],27 µM (inactive)
same,GI50,[46],23.2 µM (inactive)
same,GI50,[47],55.2 µM (inactive)
same,GI50,[48],38.2 µM (inactive)
same,GI50,[49],14.4 µM (inactive)
same,GI50,[50],> 100 µM (inactive)
same,GI50,[51],2.56 µM (inactive)
same,GI50,[52],24.4 µM (inactive)
same,GI50,[53],78 µM (inactive)
same,GI50,[54],69 µM (inactive)
O=C(O)c1cc2ccccc2c(S(=O)(=O)O)c1O,GI50,[1],> 100 µM (inactive)
same,GI50,[2],> 100 µM (inactive)
same,GI50,[3],> 100 µM (inactive)
same,GI50,[4],> 100 µM (inactive)
same,GI50,[5],> 100 µM (inactive)
same,GI50,[6],> 100 µM (inactive)
same,GI50,[7],> 100 µM (inactive)
same,GI50,[8],> 100 µM (inactive)
same,GI50,[9],> 100 µM (inactive)
same,GI50,[10],> 100 µM
same,GI50,[55],> 100 µM (inactive)
same,GI50,[11],> 100 µM (inactive)
same,GI50,[12],> 100 µM (inactive)
same,GI50,[13],> 100 µM (inactive)
same,GI50,[14],> 100 µM (inactive)
same,GI50,[15],> 100 µM (inactive)
same,GI50,[16],> 100 µM (inactive)
same,GI50,[56],> 100 µM (inactive)
same,GI50,[17],> 100 µM (inactive)
same,GI50,[18],> 100 µM (inactive)
same,GI50,[19],> 100 µM (inactive)
same,GI50,[20],> 100 µM (inactive)
same,GI50,[22],> 100 µM (inactive)
same,GI50,[23],> 100 µM (inactive)
same,GI50,[24],> 100 µM (inactive)
same,GI50,[25],> 100 µM (inactive)
same,GI50,[26],> 100 µM (inactive)
same,GI50,[27],> 100 µM (inactive)
same,GI50,[28],> 100 µM (inactive)
same,GI50,[29],> 100 µM (inactive)
same,GI50,[57],> 100 µM (inactive)
same,GI50,[30],> 100 µM (inactive)
same,GI50,[31],> 100 µM (inactive)
same,GI50,[32],> 100 µM (inactive)
same,GI50,[33],> 100 µM (inactive)
same,GI50,[34],> 100 µM (inactive)
same,GI50,[35],> 100 µM (inactive)
same,GI50,[36],> 100 µM (inactive)
same,GI50,[37],> 100 µM (inactive)
same,GI50,[38],> 100 µM (inactive)
same,GI50,[39],> 100 µM (inactive)
same,GI50,[40],> 100 µM (inactive)
same,GI50,[41],> 100 µM (inactive)
same,GI50,[42],> 100 µM (inactive)
same,GI50,[43],> 100 µM (inactive)
same,GI50,[44],> 100 µM (inactive)
same,GI50,[45],> 100 µM (inactive)
same,GI50,[46],> 100 µM (inactive)
same,GI50,[58],> 100 µM (inactive)
same,GI50,[47],> 100 µM (inactive)
same,GI50,[48],> 100 µM (inactive)
same,GI50,[49],> 100 µM (inactive)
same,GI50,[50],> 100 µM (inactive)
same,GI50,[51],> 100 µM (inactive)
same,GI50,[52],> 100 µM (inactive)
same,GI50,[53],> 100 µM (inactive)
same,GI50,[54],> 100 µM (inactive)
